Measured values from US11241442B2, “Methods of use for TRP channel antagonist-based combination cancer therapies” (President and Fellows of Harvard College, priority 2017, dated 2022).

Tests used:
Format in all cases: cell-based
HCC70 = experiment: Live cell number under carboplatin in HCC70 cells; settings: 10 μM AP-18; carboplatin 72 h; HCC70, very low TRPA1
Experimental: (§1) For the measurements of live cell number and cell death under treatment with H2O2, diamide, or chemotherapies, cells were cultured on 96-well plates in the presence or absence of these drugs for indicated times and stained with 5 μM bisBenzimide H 33342 trihydrochloride (Hoechst; Sigma) and 5 μM propidium iodide (PI; Sigma) for 1 h at 37° C. Hoechst- and/or PI-positive cells were counted using a laser scanning cytometer, Acumen Cellista (TTPLabTech). Apoptotic cells induced by H2O2 treatment were measured by staining with Annexin V-Alexa Fluor® 488 conjugate (Life Technologies) and PI in Ca^2+-containing solution (10 mM HEPES pH 7.4, 140 mM NaCl; 2.5 mM CaCl2), followed by flow cytometric measurement of fluorescence using a FACSCalibur. Flow cytometry plots are representative of three independent experiments. […] Viable cells were counted using the Countless Automated Cell Counters (Thermo Fisher Scientific). […] Hoechst- and/or PI-positive areas were measured using Acumen Cellista. Apoptotic cells induced by detachment were measured by staining with 5 μM Hoechst and 5 μM of CellEvent™ Caspase-3/7 Green Detection Reagent (Thermo Fisher Scientific) for 1 h at 37° C. without enzymatic dissociation of cell clumps. Hoechst- and/or CellEvent™ Caspase-3/7 Green Detection Reagent-positive areas were measured using Acumen Cellista. […]

TRPA1 [1] = experiment: [Ca2+]i by fura-2 in TRPA1-expressing MCF-10A 3D acini; settings: inner ECM-deprived region of MCF-10A acini
Experimental: (§2) For the measurement of [Ca^2+]i levels in cells cultured in 2D or 3D (in Matrigel), cells were stained with 3.5 μM fura-2-AM (Life Technology) in the presence of 2.5 mM probenecid (Sigma) and 0.02% Pluronic F-127 (Sigma) for 45 min at 37° C. The fura-2 fluorescence was measured in HBS solution containing 1.25 mM probenecid at 37° C. Fluorescence images of the cells were acquired through the Eclipse Ti-E microscope with ORCA-R2 cooled CCD camera and analyzed with Metafluor. The 340:380-nm ratio images were obtained on a pixel-by-pixel basis and were converted to Ca^2+ concentrations by in vivo calibration using 5 μM ionomycin as described previously (Nishida et al., Biochem. Biophys. Res. Commun., 262:350-354, 1999). 3D images are shown as one section from midstructure. For the measurement of [Ca^2+]i levels in cells cultured in suspension, cell clumps were dissociated with trypsin and [Ca^2+]i levels were determined by using Fluo-4 NW Calcium Assay Kit (Molecular Probes). Cells were stained with Fluo-4 according to the manufacturer's instructions and subjected to flow cytometric analysis (FACSCalibur) using HBS as sheath fluid. [Ca^2+]i levels determined by flow cytometry are reported as mean fluorescence intensity expressed in arbitrary units. Time courses of [Ca^2+]i rises in 2D culture are representative of three independent experiments and averaged Δ[Ca^2+]i represents mean±SEM from the sum of three independent experiments. Fura-2 ratio images in 3D culture are representative of two independent experiments and averaged [Ca^2+]i in 3D culture represents mean±SEM from the sum of two independent experiments.

MCF-10A acini = experiment: [H2O2]i by Hyper-2 in MCF-10A 3D acini
Experimental: For the measurement of [H2O2]i levels in MCF-10A acini and HCC1569 spheroids, cells were transduced with a lentiviral vector encoding Hyper-2 or Hyper-2 (C199S). The Hyper-2 fluorescence was measured at 37° C. in HEPES-buffered saline (HBS) containing the following (in mM): 150 NaCl, 6 KCl, 1.2 MgSO4, 2 CaCl2, 11.5 glucose, and 25 HEPES (pH adjusted to 7.4 with NaOH). Fluorescence images of the cells were acquired through the Eclipse Ti-E microscope (Nikon) with ORCA-R2 cooled CCD camera (Hamamatsu Photonics) and analyzed with Metafluor image acquisition software (Molecular Devices). The 488:405-nm ratio images were obtained on a pixel-by-pixel basis. 3D images are shown as one section from midstructure. For the measurement of [H2O2]i levels in MCF-10A cells cultured in suspension, cell clumps were dissociated with trypsin and stained with 10 μM peroxy green-1 for 30 min at 37° C. Cells were then subjected to flow cytometric analysis (FACSCalibur; BD Biosciences). ROS levels determined by flow cytometry are reported as mean fluorescence intensity expressed in arbitrary units. Hyper-2 ratio images are representative from two independent experiments and averaged Hyper-2 ratio represents mean±SD from the sum of two independent experiments.

TRPA1 [2] = molecular target: T1, TRPA1 (Homo sapiens, UniProt O75762); experiment: [Ca2+]i by fura-2 in HCC1569 spheroids; settings: AP-18, 300 nM A-967079 or 5 mM NAC
T1 construct: endogenous in cells; host or cells: HCC1569 breast cancer cells (2D culture or 3D spheroids; shGFP or shTRPA1 transduced)
Experimental: as §2

EL-12-58 cells = experiment: Live cell number under carboplatin in EL-12-58 cells; settings: 10 μM AP-18, carboplatin 72 h
Experimental: as §1

HCC1569 cells = experiment: Live cell number and cell death under carboplatin in HCC1569 cells; settings: carboplatin 72 h
Experimental: For the measurements of live cell number and cell death under treatment with H2O2, diamide, or chemotherapies, cells were cultured on 96-well plates in the presence or absence of these drugs for indicated times and stained with 5 μM bisBenzimide H 33342 trihydrochloride (Hoechst; Sigma) and 5 μM propidium iodide (PI; Sigma) for 1 h at 37° C. Hoechst- and/or PI-positive cells were counted using a laser scanning cytometer, Acumen Cellista (TTPLabTech). Apoptotic cells induced by H2O2 treatment were measured by staining with Annexin V-Alexa Fluor® 488 conjugate (Life Technologies) and PI in Ca^2+-containing solution (10 mM HEPES pH 7.4, 140 mM NaCl; 2.5 mM CaCl2), followed by flow cytometric measurement of fluorescence using a FACSCalibur. Flow cytometry plots are representative of three independent experiments. For the counting of viable cells cultured in suspension, cell clumps were dissociated with trypsin and stained with trypan blue. Viable cells were counted using the Countless Automated Cell Counters (Thermo Fisher Scientific). For the measurement of percentage of dead cells cultured in suspension, cells were cultured on poly HEMA-coated 96-well plates and stained with 5 μM Hoechst and 5 μM PI for 1 h at 37° C. without enzymatic dissociation of cell clumps. Hoechst- and/or PI-positive areas were measured using Acumen Cellista. Apoptotic cells induced by detachment were measured by staining with 5 μM Hoechst and 5 μM of CellEvent™ Caspase-3/7 Green Detection Reagent (Thermo Fisher Scientific) for 1 h at 37° C. without enzymatic dissociation of cell clumps. Hoechst- and/or CellEvent™ Caspase-3/7 Green Detection Reagent-positive areas were measured using Acumen Cellista. For the cell cycle analysis, enzymatically dissociated cells were fixed with ice-cold 70% EtOH for at least 30 min at 4° C., washed three times with PBS at 4° C., resuspended in PBS, treated with 100 μg/ml RNase A (Sigma), and stained with 50 μg/ml PI. The stained samples were subjected to flow cytometric analysis (FACSCalibur).

BT-549 = experiment: Live cell number under carboplatin in BT-549 cells; settings: 10 μM AP-18; carboplatin 72 h; BT-549, very low TRPA1
Experimental: as §1

Chain of TRPA1 (O75762 682-1119 limits assumed): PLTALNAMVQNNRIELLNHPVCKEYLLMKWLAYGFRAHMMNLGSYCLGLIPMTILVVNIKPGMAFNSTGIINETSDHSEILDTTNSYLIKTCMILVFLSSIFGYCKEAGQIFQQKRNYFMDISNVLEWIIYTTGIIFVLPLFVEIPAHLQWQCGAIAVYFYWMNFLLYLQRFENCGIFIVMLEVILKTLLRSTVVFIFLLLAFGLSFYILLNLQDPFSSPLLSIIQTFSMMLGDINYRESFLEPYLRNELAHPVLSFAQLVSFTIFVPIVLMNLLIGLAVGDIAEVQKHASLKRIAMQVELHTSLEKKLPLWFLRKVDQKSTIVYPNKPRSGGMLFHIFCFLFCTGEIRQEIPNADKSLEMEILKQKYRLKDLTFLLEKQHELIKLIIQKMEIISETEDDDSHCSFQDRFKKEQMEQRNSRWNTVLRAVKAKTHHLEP
T1 sequence (O75762 whole entry): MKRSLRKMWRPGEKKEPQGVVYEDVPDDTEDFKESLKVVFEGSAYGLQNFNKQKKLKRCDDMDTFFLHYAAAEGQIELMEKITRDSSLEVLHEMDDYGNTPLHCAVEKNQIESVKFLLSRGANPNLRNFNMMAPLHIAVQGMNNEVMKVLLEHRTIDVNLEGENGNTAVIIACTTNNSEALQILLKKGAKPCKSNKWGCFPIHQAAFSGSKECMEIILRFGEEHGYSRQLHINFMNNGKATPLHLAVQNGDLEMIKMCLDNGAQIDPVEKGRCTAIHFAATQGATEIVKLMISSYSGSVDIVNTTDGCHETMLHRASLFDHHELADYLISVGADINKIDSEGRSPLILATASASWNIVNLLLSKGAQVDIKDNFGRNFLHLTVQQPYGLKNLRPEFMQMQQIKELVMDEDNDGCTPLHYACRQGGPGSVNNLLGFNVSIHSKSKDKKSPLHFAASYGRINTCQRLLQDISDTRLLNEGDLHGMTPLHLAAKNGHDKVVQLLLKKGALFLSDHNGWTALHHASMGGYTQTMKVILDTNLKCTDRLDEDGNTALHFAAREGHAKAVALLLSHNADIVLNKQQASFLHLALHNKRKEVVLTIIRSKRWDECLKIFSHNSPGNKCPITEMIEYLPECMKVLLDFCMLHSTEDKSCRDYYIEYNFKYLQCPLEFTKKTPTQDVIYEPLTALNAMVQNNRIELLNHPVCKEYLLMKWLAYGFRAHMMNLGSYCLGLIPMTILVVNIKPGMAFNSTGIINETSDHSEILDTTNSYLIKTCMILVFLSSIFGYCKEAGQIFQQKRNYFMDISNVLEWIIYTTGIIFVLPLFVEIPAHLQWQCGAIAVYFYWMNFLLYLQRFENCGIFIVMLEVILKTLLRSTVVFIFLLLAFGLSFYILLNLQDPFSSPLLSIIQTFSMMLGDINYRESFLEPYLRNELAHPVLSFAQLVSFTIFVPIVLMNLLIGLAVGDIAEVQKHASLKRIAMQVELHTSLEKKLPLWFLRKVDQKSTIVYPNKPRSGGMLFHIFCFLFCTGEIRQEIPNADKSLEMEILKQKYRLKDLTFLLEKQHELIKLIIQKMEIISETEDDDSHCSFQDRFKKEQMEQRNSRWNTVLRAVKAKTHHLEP

## AP-18
HCC70
  sensitization to carboplatin: minimal to no effect
TRPA1 [1]
  TRPA1- or E681K-induced [Ca2+]i rises: abolished
MCF-10A acini
  increase in [H2O2]i (Hyper-2) in inner ECM-deprived cells: unaffected
TRPA1 [2]
  elevated [Ca2+]i of inner cells of spheroids: suppressed
EL-12-58 cells
  sensitization to carboplatin: sensitized
HCC1569 cells
  cell death in response to carboplatin treatment: enhanced
  live cell number in response to carboplatin treatment: substantially suppressed
BT-549
  sensitization to carboplatin: minimal to no effect
